Source: patent publication US10093683B2, “Factor XIa inhibitors” (Merck Sharp & Dohme Corp., priority 2014, dated 2018)
Where two headings read alike, the source gives them in different places.

Molecular target: human Factor XIa (Homo sapiens (Human), UniProt P03951)
Test: Factor XIa Assay
Format: biochemical
Settings: read-out: FXIa Ki
Procedure: The effectiveness of a compound of the present invention as an inhibitor of Coagulation Factor XIa can be determined using a relevant purified serine protease, and an appropriate synthetic substrate. The rate of hydrolysis of the chromogenic or fluorogenic substrate by the relevant serine protease was measured both in the absence and presence of compounds of the present invention. Assays were conducted at room temperature or at 37° C. […] A decrease in the rate of fluorescence change in the presence of inhibitor is indicative of enzyme inhibition. Such methods are known to one skilled in the art. The results of this assay are expressed as the inhibitory constant, Ki.
Factor XIa determinations were made in 50 mM HEPES buffer at pH 7.4 containing 150 mM NaCl, 5 mM CaCl2, and 0.1% PEG 8000 (polyethylene glycol; JT Baker or Fisher Scientific). Determinations were made using purified human Factor XIa at a final concentration of 40 pM (Sekisui Diagnostics) and he synthetic substrate, Z-Gly-Pro-Arg-AFC, TFA salt (Sigma #C0980) at a concentration of 100 μM.
Times required to achieve equilibration between enzyme and inhibitor were determined in control experiments. Initial velocities of product formation in the absence (Vo) or presence of inhibitor (Vi) were measured. Assuming competitive inhibition, and that unity is negligible compared Km/[S], [I]/e, and [I]/e (where [S], [I], and e respectively represent the total concentrations, of substrate, inhibitor and enzyme), the equilibrium constant (Ki) for dissociation of the inhibitor from the enzyme can be obtained from the dependence of Vo/Vi on [I] shown in the following equation.

[1] = purified human Factor XIa 40 pM, Z-Gly-Pro-Arg-AFC 100 μM, pH 7.4

Sequence of human Factor XIa (P03951 388-625): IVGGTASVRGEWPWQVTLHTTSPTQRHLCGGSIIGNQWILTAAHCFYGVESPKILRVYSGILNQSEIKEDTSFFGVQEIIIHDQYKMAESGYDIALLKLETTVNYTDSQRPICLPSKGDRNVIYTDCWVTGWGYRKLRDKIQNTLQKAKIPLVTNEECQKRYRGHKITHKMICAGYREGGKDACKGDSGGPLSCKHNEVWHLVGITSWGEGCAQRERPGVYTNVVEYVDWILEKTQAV
Sequence of human Factor XIa (P03951 19-387 partner): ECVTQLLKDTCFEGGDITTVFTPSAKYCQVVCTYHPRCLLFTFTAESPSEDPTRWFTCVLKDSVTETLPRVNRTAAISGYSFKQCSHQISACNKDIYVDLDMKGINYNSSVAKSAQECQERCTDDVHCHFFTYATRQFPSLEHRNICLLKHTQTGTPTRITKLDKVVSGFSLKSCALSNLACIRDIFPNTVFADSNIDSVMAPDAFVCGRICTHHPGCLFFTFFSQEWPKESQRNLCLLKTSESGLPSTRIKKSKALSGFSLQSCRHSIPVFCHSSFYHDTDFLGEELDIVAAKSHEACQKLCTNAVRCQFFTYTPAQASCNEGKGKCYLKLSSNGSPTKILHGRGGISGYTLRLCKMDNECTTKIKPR

Row | Structure (SMILES) | Ki [1] [nM] | Ki [nM]
1 | COC(=O)Nc1ccc(C(=O)NC2(C(=O)N3CCC4(C3)OC(=O)Nc3ccc(Cl)cc34)Cc3ccccc3C2)cc1 (racemic) [Example 26, methyl (4-((2-(6-chloro-2-oxo-1,2-dihydrospiro[benzo[d][1,3]oxazine-4,3′-pyrrolidin]-1′-ylcarbonyl)-2,3-dihydro-1H-inden-2-yl)carbamoyl)phenyl)carbamate] | ≥ 5000 | –
2 | COC(=O)Nc1ccc(C(=O)N[C@@H](Cc2ccccc2)C(=O)N2CCC3(C2)NC(=O)Nc2ccc(Cl)cc23)cc1 (single isomer, unassigned) [Example 19a] | 5000 | –
3 | COC(=O)Nc1ccc(-c2nc(C(Cc3ccccc3)C(=O)N3CCCC4(C3)OC(=O)Nc3ccc(Cl)c(F)c34)[nH]c2Cl)cc1 (single isomer, unassigned) [Example 126A, methyl (4-(5-chloro-2-(1-(6-chloro-5-fluoro-2-oxo-1,2-dihydrospiro[benzo[d][1,3]oxazine-4,3′-piperidin]-1′-yl)-1-oxo-3-phenylpropan-2-yl)-1H-imidazol-4-yl)phenyl)carbamate] | 1880 | –
4 | COC(=O)Nc1ccc(-c2ncc(C(Cc3ccccc3)C(=O)N3CCC[C@@]4(C3)OC(=O)Nc3ccc(Cl)c(F)c34)[nH]2)cc1 (single isomer, unassigned) [Example 130B] | > 875 | –
5 | O=C1Nc2ccc(Cl)cc2C2(CCN(C(=O)[C@H](Cc3ccccc3)NC(=O)c3ccc(C(=O)O)cc3)C2)O1 (single isomer, unassigned) [Example 140a] | – | 1600
6 | O=C1Nc2ccc(Cl)cc2C2(CCN(C(=O)[C@H](Cc3ccccc3)NC(=O)c3ccc(C(=O)O)cc3)C2)O1 (single isomer, unassigned) [Example 140b] | – | 5000
7 | COC(=O)Nc1ccc(C(=O)N[C@@H](Cc2ccccc2)C(=O)N2CC[C@]3(C2)OC(=O)Nc2ncc(Cl)cc23)cc1 [Example 1a, methyl (4-(((S)-1-((S)-6-chloro-2-oxo-1,2-dihydrospiro[pyrido[2,3-d][1,3]oxazine-4,3′-pyrrolidin]-1′-yl)-1-oxo-3-phenylpropan-2-yl)carbamoyl)phenyl)carbamate] | 3470 | –
8 | COC(=O)Nc1ccc(C(=O)N[C@@H](Cc2ccccc2)C(=O)N2CCC[C@]3(C2)OC(=O)Nc2ccc(Cl)cc23)cc1 [Example 3a, methyl (4-(((S)-1-((S)-6-chloro-2-oxo-1,2-dihydrospiro[benzo[d][1,3]oxazine-4,3′-piperidin]-1′-yl)-1-oxo-3-phenylpropan-2-yl)carbamoyl)phenyl)carbamate] | 815 | –
9 | COC(=O)Nc1ccc(C(=O)N[C@@H](Cc2ccccc2)C(=O)N2CCCCC3(C2)OC(=O)Nc2ccc(Cl)cc23)cc1 (stereo partly drawn) [Example 4, methyl (4-(((2S)-1-(6′-chloro-2′-oxo-1′,2′-dihydrospiro[azepane-3,4′-benzo[d][1,3]oxazin]-1-yl)-1-oxo-3-phenylpropan-2-yl)carbamoyl)phenyl)carbamate] | 4600 | –
10 | COC(=O)Nc1ccc(C(=O)N[C@@H](Cc2ccccc2)C(=O)N2CC3(C2)OC(=O)Nc2ccc(Cl)cc23)cc1 [Example 5, (S)-methyl (4-((1-(6′-chloro-2′-oxo-1′,2′-dihydrospiro[azetidine-3,4′-benzo[d][1,3]oxazin]-1-yl)-1-oxo-3-phenylpropan-2-yl)carbamoyl)phenyl)carbamate] | > 5000 | –
11 | COC(=O)Nc1ccc(C(=O)N[C@@H](Cc2ccccc2)C(=O)N2CCC[C@]3(C2)OC(=O)Nc2ccc(F)cc23)cc1 [Example 8b, methyl (4-(((S)-1-((S)-6-fluoro-2-oxo-1,2-dihydrospiro[benzo[d][1,3]oxazine-4,3′-piperidin]-1′-yl)-1-oxo-3-phenylpropan-2-yl)carbamoyl)phenyl)carbamate] | 5000 | –
12 | COC(=O)Nc1ccc(C(=O)N[C@@H](Cc2ccccc2)C(=O)N2CCC[C@@]3(C2)OC(=O)Nc2ccc(C(F)(F)F)cc23)cc1 [Example 10, methyl (4-(((S)-1-oxo-1-((R)-2-oxo-6-(trifluoromethyl)-1,2-dihydrospiro[benzo[d][1,3]oxazine-4,3′-piperidin]-1′-yl)-3-phenylpropan-2-yl)carbamoyl)phenyl)carbamate] | 8440 | –
13 | COC(=O)Nc1ccc(C(=O)N[C@@H](Cc2ccccc2)C(=O)N2CC[C@]3(C2)OC(=O)Nc2ccc(C)cc23)cc1 [Example 14a, methyl (4-(((S)-1-((S)-6-methyl-2-oxo-1,2-dihydrospiro[benzo[d][1,3]oxazine-4,3′-pyrrolidin]-1′-yl)-1-oxo-3-phenylpropan-2-yl)carbamoyl)phenyl)carbamate] | 5000 | –

Next, values leading:

Row | Ki [1] [nM] | Ki [nM] | Structure (SMILES)
14 | 248 | – | COC(=O)Nc1ccc(C(=O)NCC(=O)N2CCC3(C2)OC(=O)Nc2ccc(Cl)cc23)cc1 (racemic) [Example 23, methyl (4-((2-(6-chloro-2-oxo-1,2-dihydrospiro[benzo[d][1,3]oxazine-4,3′-pyrrolidin]-1′-yl)-2-oxoethyl)carbamoyl)phenyl)carbamate]
15 | 63.7 | – | COC(=O)Nc1ccc(C(=O)NC(Cc2cc[nH]n2)C(=O)N2CCC3(C2)OC(=O)Nc2ccc(Cl)cc23)cc1 (racemic) [Example 28, methyl (4-((1-(6-chloro-2-oxo-1,2-dihydrospiro[benzo[d][1,3]oxazine-4,3′-pyrrolidin]-1′-yl)-1-oxo-3-(1H-pyrazol-3-yl)propan-2-yl)carbamoyl)phenyl)carbamate]
16 | 708 | – | COC(=O)Nc1ccc(C(=O)N[C@@H](Cc2ccccc2)C(=O)N2CCC3(C2)NC(=O)Nc2ccc(Cl)cc23)cc1 (single isomer, unassigned) [Example 19b]
17 | 4.21 | – | COC(=O)Nc1ccc(C(=O)NC(C[C@@H]2CCCO2)C(=O)N2CCC[C@@]3(C2)OC(=O)Nc2ccc(Cl)c(F)c23)cc1 (single isomer, unassigned) [Example 116B]
18 | 99.9 | – | COC(=O)Nc1ccc(C(=O)NC(C[C@H]2CCCO2)C(=O)N2CCC[C@@]3(C2)OC(=O)Nc2ccc(Cl)c(F)c23)cc1 (single isomer, unassigned) [Example 117B]
19 | 154 | – | COC(=O)Nc1ccc(-c2nc(C(Cc3ccccc3)C(=O)N3CCCC4(C3)OC(=O)Nc3ccc(Cl)c(F)c34)[nH]c2Cl)cc1 (single isomer, unassigned) [Example 126B, methyl (4-(5-chloro-2-(1-(6-chloro-5-fluoro-2-oxo-1,2-dihydrospiro[benzo[d][1,3]oxazine-4,3′-piperidin]-1′-yl)-1-oxo-3-phenylpropan-2-yl)-1H-imidazol-4-yl)phenyl)carbamate]
20 | 320 | – | COC(=O)Nc1ccc(-c2nnc(C(Cc3ccccc3)C(=O)N3CC[C@@]4(C3)OC(=O)Nc3ccc(Cl)c(F)c34)o2)cc1 (single isomer, unassigned) [Example 129B]
21 | 360 | – | COC(=O)Nc1ccc(-c2ncc(C(Cc3ccccc3)C(=O)N3CCC[C@@]4(C3)OC(=O)Nc3ccc(Cl)c(F)c34)[nH]2)cc1 (single isomer, unassigned) [Example 130A]
22 | 61.7 | – | O=C1Nc2ccc(Cl)cc2[C@@]2(CCCN(C(=O)C(Cc3ccc(F)cc3)c3nc4ccc(C(=O)O)cc4[nH]3)C2)O1 (single isomer, unassigned) [Example 132A (isomer A)]
23 | 449 | – | O=C1Nc2ccc(Cl)cc2[C@@]2(CCCN(C(=O)C(Cc3ccc(F)cc3)c3nc4ccc(C(=O)O)cc4[nH]3)C2)O1 (single isomer, unassigned) [Example 132A (isomer B)]
24 | 246 | – | COC(=O)Nc1ccc(C(=O)N[C@@H](Cc2ccccc2)C(=O)N2CC[C@@]3(C2)OC(=O)Nc2ncc(Cl)cc23)cc1 [Example 1b, methyl (4-(((S)-1-((R)-6-chloro-2-oxo-1,2-dihydrospiro[pyrido[2,3-d][1,3]oxazine-4,3′-pyrrolidin]-1′-yl)-1-oxo-3-phenylpropan-2-yl)carbamoyl)phenyl)carbamate]
25 | 220 | – | COC(=O)Nc1ccc(C(=O)N[C@@H](Cc2ccccc2)C(=O)N2CC[C@@]3(C2)OC(=O)Nc2ccccc23)cc1 [Example 2, methyl (4-(((S)-1-oxo-1-((R)-2-oxo-1,2-dihydrospiro[benzo[d][1,3]oxazine-4,3′-pyrrolidin]-1′-yl)-3-phenylpropan-2-yl)carbamoyl)phenyl)carbamate]
26 | 51 | – | COC(=O)Nc1ccc(C(=O)N[C@@H](Cc2ccccc2)C(=O)N2CCC[C@@]3(C2)OC(=O)Nc2cc(F)c(Cl)c(F)c23)cc1 [Example 11, methyl (4-(((S)-1-((R)-6-chloro-5,7-difluoro-2-oxo-1,2-dihydrospiro[benzo[d][1,3]oxazine-4,3′-piperidin]-1′-yl)-1-oxo-3-phenylpropan-2-yl)carbamoyl)phenyl)carbamate]
27 | 109 | – | COC(=O)Nc1ccc(C(=O)N[C@@H](Cc2ccccc2)C(=O)N2CCC[C@@]3(C2)OC(=O)Nc2c(F)cc(Cl)cc23)cc1 [Example 12, methyl (4-(((S)-1-((R)-6-chloro-8-fluoro-2-oxo-1,2-dihydrospiro[benzo[d][1,3]oxazine-4,3′-piperidin]-1′-yl)-1-oxo-3-phenylpropan-2-yl)carbamoyl)phenyl)carbamate]
